Test results from patent US11130733B2, “4-OXO-alkylated tetramic acid compound, preparation method and use thereof” (BEIJING JOEKAI BIOTECH. LLC, priority 2017, dated 2021).
Where “and” joins values, the source holds several entries; their conditions need not be identical. Identical values can stand only once.

Legend:
[1] = test system: Drosophilae containing and expressing human Abeta42 gene; assay: Pavlov's olfactory-related instantaneous memory test in Drosophila; assay type: in vivo; conditions: FIG. 3; with increase of dosage; compared with positive compound memantine hydrochloride
[2] = Pharmacokinetic evaluation, plasma and brain concentrations; assay type: in vivo, ICR mice
Text: Distribution of a medicament in the body is one of the important indicators to determine the dose and efficacy of the medicament. Thus, excellent candidate compounds should have good pharmacokinetic characteristics. In addition, since the compound of the present invention is intended to be used for the treatment of Alzheimer's disease, which is a disease of the central nervous system, the distribution pattern of the compound in the brain and the blood is also one of the subjects to be investigated. In this experiment, compound 50561 was administered to mice […] or by gavage, and the concentrations of the compound in blood and brain were measured at specific time points to determine the pharmacokinetic parameters.
Forty-eight male ICR mice purchased from Shanghai Sippr-BK Lab. Animal Co. Ltd were used in this experiment. The oral group was fasted for 10-14 hours before administration, and feeding was restored 4 hours after administration. Samples were collected from the intravenous administration group 0.083 h, 0.25 h, 0.5 h, 1 h, 2 h, 4 h, 8 h, and 24 h after administration, respectively: while for the oral administration group, about 0.5 mL of blood was collected from the heart 0.25 h, 0.5 h, 1 h, 2 h, 4 h, 6 h, 8 h, and 24 h after administration, respectively. Heparin sodium was used for anticoagulation. Blood samples were collected and placed on ice, and plasma was separated by centrifugation (centrifugation conditions: 8000 rpm, 6 minutes, 4C). The collected plasma was stored at −80° C. before analysis. After collecting plasma samples, brain tissues were collected, washed with normal saline, water-absorbed by filter paper, weighed immediately, and then placed in labeled tubes (one tube for one brain tissue). The samples to be tested were temporarily placed on ice before being stored in a −80° C. refrigerator.
The analysis methods of biological samples and the analysis of all samples were done by Medicilon Pharmaceutical Technology (Shanghai) Co., Ltd. The intraday accuracy evaluation of the quality control samples was carried out while analyzing the samples, and the accuracy of over 66.7% of the quality control samples was required to be between 80-120%.
When calculating the pharmacokinetic parameters, the BLQ before Cmax (including “No peak”) was calculated as 0; BLQ occurring after Cmax (including “No peak”) was not involved in the calculation. WinNonlin Professional V 5.2 (Pharsight, USA) was adopted to calculate the following pharmacokinetic parameters: AUC(0-t), AUC(0-∞), T1/2, MRT(0-∞), Cmax, and Tmax. The tissue/plasma ratio was to be calculated by the following formula based on the blood concentration data at different time points: Tissue/plasma ratio (mL/g)=tissue blood concentration/plasma blood concentration.

O=C1C=C(OCc2ccc(F)cc2)[C@H](Cc2ccccc2)N1 [Compound 50561]
dose-effect relationship to improve memory of drosophilae [1]: eventually reaches or exceeds the level of the activity of the positive compound memantine hydrochloride | Brain/plasma ratio, Mean ([2]; IV 1 mg/kg, 0.083 hr): 2.499 mL/G | Blood concentration, individual mice ([2]; IV 1 mg/kg, 0.083 hr, 1 mg/kg): 327.86 ng/mL and 145.16 ng/mL and 434.45 ng/mL | Brain tissue concentration, individual mice ([2]; IV 1 mg/kg, 0.083 hr, 1 mg/kg): 853.63 ng/G and 383.96 ng/G | Brain/plasma ratio, individual mice ([2]; IV 1 mg/kg, 0.083 hr, 1 mg/kg): 2.604 mL/G and 2.645 mL/G and 2.249 mL/G | Brain/plasma ratio, Mean ([2]; IV 1 mg/kg, 0.25 hr): 2.342 mL/G | Blood concentration, individual mice ([2]; IV 1 mg/kg, 0.25 hr, 1 mg/kg): 180.29 ng/mL and 215.73 ng/mL | Brain tissue concentration, individual mice ([2]; IV 1 mg/kg, 0.25 hr, 1 mg/kg): 435.34 ng/G and 465.70 ng/G | Brain/plasma ratio, individual mice ([2]; IV 1 mg/kg, 0.25 hr, 1 mg/kg): 2.451 mL/G and 2.415 mL/G and 2.159 mL/G | Brain/plasma ratio, Mean ([2]; IV 1 mg/kg, 0.5 hr): 2.488 mL/G | Blood concentration, individual mice ([2]; IV 1 mg/kg, 0.5 hr, 1 mg/kg): 98.13 ng/mL and 89.73 ng/mL | Brain tissue concentration, individual mice ([2]; IV 1 mg/kg, 0.5 hr, 1 mg/kg): 251.60 ng/G and 211.84 ng/G | Brain/plasma ratio, individual mice ([2]; IV 1 mg/kg, 0.5 hr, 1 mg/kg): 2.540 mL/G and 2.564 mL/G and 2.361 mL/G | Brain/plasma ratio, Mean ([2]; IV 1 mg/kg, 1 hr): 3.007 mL/G | Blood concentration, individual mice ([2]; IV 1 mg/kg, 1 hr, 1 mg/kg): 18.27 ng/mL and 8.99 ng/mL and 18.70 ng/mL | Brain tissue concentration, individual mice ([2]; IV 1 mg/kg, 1 hr, 1 mg/kg): 35.43 ng/G and 51.45 ng/G | Brain/plasma ratio, individual mice ([2]; IV 1 mg/kg, 1 hr, 1 mg/kg): 2.330 mL/G and 3.941 mL/G and 2.751 mL/G | Blood concentration, individual mice ([2]; IV 1 mg/kg, 2 hr): BLQ | Brain tissue concentration, individual mice ([2]; IV 1 mg/kg, 2 hr): BLQ | Blood concentration, individual mice ([2]; IV 1 mg/kg, 4 hr): BLQ | Brain tissue concentration, individual mice ([2]; IV 1 mg/kg, 4 hr): BLQ | Blood concentration, individual mice ([2]; IV 1 mg/kg, 8 hr): BLQ | Brain tissue concentration, individual mice ([2]; IV 1 mg/kg, 8 hr): BLQ | Blood concentration, individual mice ([2]; IV 1 mg/kg, 24 hr): BLQ | Brain tissue concentration, individual mice ([2]; IV 1 mg/kg, 24 hr): BLQ | Brain/plasma ratio, Mean ([2]; PO 10 mg/kg, 0.25 hr): 1.877 mL/G | Blood concentration, individual mice ([2]; PO 10 mg/kg, 0.25 hr, 10 mg/kg): 655.31 ng/mL and 548.11 ng/mL | Brain tissue concentration, individual mice ([2]; PO 10 mg/kg, 0.25 hr, 10 mg/kg): 1042.09 ng/G and 1147.13 ng/G | Brain/plasma ratio, individual mice ([2]; PO 10 mg/kg, 0.25 hr, 10 mg/kg): 1.948 mL/G and 1.590 mL/G and 2.093 mL/G | Brain/plasma ratio, Mean ([2]; PO 10 mg/kg, 0.5 hr): 2.147 mL/G | Blood concentration, individual mice ([2]; PO 10 mg/kg, 0.5 hr, 10 mg/kg): 631.98 ng/mL and 529.57 ng/mL | Brain tissue concentration, individual mice ([2]; PO 10 mg/kg, 0.5 hr, 10 mg/kg): 2484.73 ng/G and 1280.85 ng/G and 1048.58 ng/G | Brain/plasma ratio, individual mice ([2]; PO 10 mg/kg, 0.5 hr, 10 mg/kg): 2.435 mL/G and 2.027 mL/G and 1.980 mL/G | Brain/plasma ratio, Mean ([2]; PO 10 mg/kg, 1 hr): 2.265 mL/G | Blood concentration, individual mice ([2]; PO 10 mg/kg, 1 hr, 10 mg/kg): 599.81 ng/mL and 532.80 ng/mL | Brain tissue concentration, individual mice ([2]; PO 10 mg/kg, 1 hr, 10 mg/kg): 1290.84 ng/G and 1149.69 ng/G | Brain/plasma ratio, individual mice ([2]; PO 10 mg/kg, 1 hr, 10 mg/kg): 2.485 mL/G and 2.152 mL/G and 2.158 mL/G | Brain/plasma ratio, Mean ([2]; PO 10 mg/kg, 2 hr): 2.329 mL/G | Blood concentration, individual mice ([2]; PO 10 mg/kg, 2 hr, 10 mg/kg): 128.34 ng/mL and 83.99 ng/mL and 219.54 ng/mL | Brain tissue concentration, individual mice ([2]; PO 10 mg/kg, 2 hr, 10 mg/kg): 277.53 ng/G and 206.08 ng/G and 520.70 ng/G | Brain/plasma ratio, individual mice ([2]; PO 10 mg/kg, 2 hr, 10 mg/kg): 2.163 mL/G and 2.454 mL/G and 2.372 mL/G | Brain/plasma ratio, Mean ([2]; PO 10 mg/kg, 4 hr): 2.052 mL/G | Blood concentration, individual mice ([2]; PO 10 mg/kg, 4 hr, 10 mg/kg): 27.74 ng/mL and 18.40 ng/mL and 10.71 ng/mL | Brain tissue concentration, individual mice ([2]; PO 10 mg/kg, 4 hr, 10 mg/kg): 65.84 ng/G and 44.67 ng/G and 14.52 ng/G | Brain/plasma ratio, individual mice ([2]; PO 10 mg/kg, 4 hr, 10 mg/kg): 2.373 mL/G and 2.428 mL/G and 1.355 mL/G
